# Results published in ChEMBL document CHEMBL4765487, “From a Designer Drug to the Discovery of Selective Cannabinoid Type 2 Receptor Agonists with Favorable Pharmacokinetic Profiles for the Treatment of Systemic Sclerosis” (J Med Chem, 2021).
# pEC50: −log10 of the molar value. The source made the active and inactive calls. No cut-off for these calls is given here.
# What was measured:
# in vitro [1] = conditions: human, liver microsomes
# Description: Half life in human liver microsomes at 1 uM in presence of NADPH by LC-MS/MS analysis
# [2] = molecular target: T1, Probable G-protein coupled receptor 132 (Homo sapiens) (UniProt Q9UNW8); experiment: Antagonist activity at GPR132 (unknown origin) at 10 uM
# T1 sequence (whole entry): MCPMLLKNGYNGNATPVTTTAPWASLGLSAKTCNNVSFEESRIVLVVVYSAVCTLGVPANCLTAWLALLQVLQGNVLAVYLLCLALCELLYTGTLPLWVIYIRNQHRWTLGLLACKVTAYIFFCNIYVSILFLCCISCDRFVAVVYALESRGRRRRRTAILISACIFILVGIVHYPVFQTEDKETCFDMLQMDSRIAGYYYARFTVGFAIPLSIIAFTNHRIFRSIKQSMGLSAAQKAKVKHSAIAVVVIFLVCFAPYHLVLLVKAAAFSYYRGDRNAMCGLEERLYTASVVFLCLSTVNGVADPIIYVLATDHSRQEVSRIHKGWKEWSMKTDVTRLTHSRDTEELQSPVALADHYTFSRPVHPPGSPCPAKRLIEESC
# CHO = experiment: Effect on ERK1/2 Thr202/Tyr204 phosphorylation in CHO cells at 0.1 to 10 uM incubated for 15 mins by Western blot analysis; format: functional, cell-based; conditions: Cricetulus griseus, dose 0.1-10 µM
# [3] = AUC (0 to infinity) in BALB/c mouse at 5 mg/kg, po measured during 0.083 to 24 hrs post dose by LC-MS/MS analysis; format: ADME, organism-based; parameters: route oral, dose 5 mg/kg, time 0.083-24 hrs; conditions: in vivo
# in vitro [4] = conditions: human, liver microsomes; remark: listed apart in the source
# [5] = Volume of distribution in BALB/c mouse at 5 mg/kg, po measured during 0.083 to 24 hrs post dose by LC-MS/MS analysis; format: ADME, organism-based; conditions: in vivo, time 0.083-24 hrs
# Mus musculus [6] = experiment: Antifibrotic activity in BALB/c mouse model of BLM-induced systemic sclerosis assessed as reduction in alpha-SMA expression at 1 to 5 mg/kg, sc dosed once daily for 4 weeks by immunohistochemical analysis; format: functional, organism-based; conditions: dose 1-5 mg/kg
# Mus musculus [7] = experiment: Antifibrotic activity in BALB/c mouse model of BLM-induced systemic sclerosis assessed as reduction in TGF-beta mRNA expression at 1 to 5 mg/kg, sc dosed once daily for 4 weeks by quantitative real-time PCR analysis; format: functional, organism-based; conditions: dose 1-5 mg/kg
# Cannabinoid receptor 2 [8] = molecular target: T2, Cannabinoid receptor 2 (Homo sapiens, UniProt P34972); experiment: Agonist activity at human CB2 receptor expressing CHO cells co-expressing Galpha16 in presence of CB2 antagonist AM630 by calcium mobilization assay; format: functional, cell-based
# T2 sequence (P34972 whole entry): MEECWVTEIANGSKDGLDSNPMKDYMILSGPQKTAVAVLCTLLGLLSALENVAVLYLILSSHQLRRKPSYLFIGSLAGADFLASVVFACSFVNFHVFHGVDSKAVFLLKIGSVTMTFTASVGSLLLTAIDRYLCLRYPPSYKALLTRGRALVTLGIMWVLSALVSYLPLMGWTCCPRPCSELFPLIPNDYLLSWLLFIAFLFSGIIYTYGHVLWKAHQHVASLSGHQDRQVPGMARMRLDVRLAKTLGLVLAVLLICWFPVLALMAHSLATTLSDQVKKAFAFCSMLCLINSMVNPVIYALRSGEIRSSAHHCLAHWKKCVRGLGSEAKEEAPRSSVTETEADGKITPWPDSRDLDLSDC
# Cannabinoid receptor 2 [9] = molecular target: T2, Cannabinoid receptor 2; experiment: Agonist activity at human CB2 receptor expressed in HEK293 cells after 24 hrs by luciferase reporter gene assay based Tango beta-arrestin recruitment method; format: cell-based
# [10] = Clearance in BALB/c mouse at 5 mg/kg, po measured during 0.083 to 24 hrs post dose by LC-MS/MS analysis; format: ADME, organism-based; conditions: in vivo, time 0.083-24 hrs
# Mus musculus [11] = experiment: Antifibrotic activity in BALB/c mouse model of BLM-induced systemic sclerosis assessed as reduction in TNF-alpha mRNA expression at 1 to 5 mg/kg, sc dosed once daily for 4 weeks by quantitative real-time PCR analysis; format: functional, organism-based; conditions: dose 1-5 mg/kg
# [12] = Cmax in BALB/c mouse at 5 mg/kg, po measured during 0.083 to 24 hrs post dose by LC-MS/MS analysis; format: ADME, organism-based; parameters: route oral, time 0.083-24 hrs, dose 5 mg/kg; conditions: in vivo
# [13] = Clearance in BALB/c mouse at 1 mg/kg, iv measured during 0.083 to 24 hrs post dose by LC-MS/MS analysis; format: ADME, organism-based; conditions: in vivo, time 0.083-24 hrs
# Cannabinoid receptor 1 [14] = molecular target: T3, Cannabinoid receptor 1 (Homo sapiens, UniProt P21554); experiment: Agonist activity at human CB1 receptor expressing CHO cells co-expressing Galpha16 at 10 uM by calcium mobilization assay; format: functional, cell-based; conditions: filed as agonist
# T3 sequence (P21554 whole entry): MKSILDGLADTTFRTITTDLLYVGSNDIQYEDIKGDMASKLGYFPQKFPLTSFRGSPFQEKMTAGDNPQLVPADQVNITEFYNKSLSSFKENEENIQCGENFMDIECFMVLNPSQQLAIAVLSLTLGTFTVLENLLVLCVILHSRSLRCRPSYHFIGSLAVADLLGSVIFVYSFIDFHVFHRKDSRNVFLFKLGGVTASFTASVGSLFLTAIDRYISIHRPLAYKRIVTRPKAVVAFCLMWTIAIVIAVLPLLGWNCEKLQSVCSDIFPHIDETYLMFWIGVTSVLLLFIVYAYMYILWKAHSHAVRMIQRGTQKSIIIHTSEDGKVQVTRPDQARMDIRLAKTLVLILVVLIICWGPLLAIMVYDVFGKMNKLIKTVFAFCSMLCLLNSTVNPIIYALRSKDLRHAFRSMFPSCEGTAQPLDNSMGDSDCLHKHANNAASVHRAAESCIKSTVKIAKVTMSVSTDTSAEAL
# [15] = molecular target: Prostaglandin E2 receptor EP4 subtype (Homo sapiens) (UniProt P35408); experiment: Antagonist activity at EP2 (unknown origin) at 10 uM
# Sequence of Prostaglandin E2 receptor EP4 subtype (Homo sapiens) (P35408 whole entry): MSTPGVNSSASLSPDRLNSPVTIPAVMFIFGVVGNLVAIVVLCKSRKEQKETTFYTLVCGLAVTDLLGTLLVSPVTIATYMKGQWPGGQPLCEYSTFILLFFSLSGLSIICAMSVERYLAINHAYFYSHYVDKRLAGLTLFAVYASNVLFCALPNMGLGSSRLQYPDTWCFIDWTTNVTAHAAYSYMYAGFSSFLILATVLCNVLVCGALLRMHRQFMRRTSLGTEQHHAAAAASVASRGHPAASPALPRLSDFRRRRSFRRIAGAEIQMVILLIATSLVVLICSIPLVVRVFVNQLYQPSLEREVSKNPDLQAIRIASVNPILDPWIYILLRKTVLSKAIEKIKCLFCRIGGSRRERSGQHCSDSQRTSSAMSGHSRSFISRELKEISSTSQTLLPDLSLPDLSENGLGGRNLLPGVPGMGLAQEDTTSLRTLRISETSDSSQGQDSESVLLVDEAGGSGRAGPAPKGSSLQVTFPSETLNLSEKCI
# [16] = AUC (0 to infinity) in BALB/c mouse at 1 mg/kg, iv measured during 0.083 to 24 hrs post dose by LC-MS/MS analysis; format: ADME, organism-based; parameters: route intravenous, time lower 0.083 hrs, dose 1 mg/kg, time upper 24 hrs; conditions: in vivo
# Cannabinoid receptor 2 [17] = molecular target: T2, Cannabinoid receptor 2; experiment: Agonist activity at human CB2 receptor expressed in CHO cells assessed as increase in ERK1/2 Thr202/Tyr204 phosphorylation at 10 uM incubated for 15 mins in presence of CB2 antagonist AM630 by Western blot analysis; format: cell-based
# [18] = molecular target: T4, Glucose-dependent insulinotropic receptor (Homo sapiens) (UniProt Q8TDV5); experiment: Antagonist activity at GPR119 (unknown origin) at 10 uM
# T4 sequence (whole entry): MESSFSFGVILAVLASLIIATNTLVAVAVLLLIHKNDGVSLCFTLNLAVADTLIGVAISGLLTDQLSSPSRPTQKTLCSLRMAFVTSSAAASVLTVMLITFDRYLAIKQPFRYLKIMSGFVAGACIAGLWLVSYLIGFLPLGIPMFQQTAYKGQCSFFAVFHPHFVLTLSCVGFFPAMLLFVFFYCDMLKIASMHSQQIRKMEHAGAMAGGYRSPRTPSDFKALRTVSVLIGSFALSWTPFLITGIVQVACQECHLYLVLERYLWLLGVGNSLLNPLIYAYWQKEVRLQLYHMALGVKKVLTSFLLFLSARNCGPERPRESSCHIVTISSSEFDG
# [19] = Cmax in BALB/c mouse at 1 mg/kg, iv measured during 0.083 to 24 hrs post dose by LC-MS/MS analysis; format: ADME, organism-based; parameters: route intravenous, time upper 24 hrs, dose 1 mg/kg, time lower 0.083 hrs; conditions: in vivo
# Cannabinoid receptor 1 [20] = molecular target: T3, Cannabinoid receptor 1; experiment: Agonist activity at human CB1 receptor expressing CHO cells co-expressing Galpha16 by calcium mobilization assay relative to CP55940; format: functional, cell-based
# [21] = molecular target: Prostaglandin E2 receptor EP4 subtype (Homo sapiens) (UniProt P35408); experiment: Agonist activity at EP4 (unknown origin) at 10 uM
# Mus musculus [22] = experiment: Antifibrotic activity in BALB/c mouse model of BLM-induced systemic sclerosis assessed as reduction in skin thickness at 5 mg/kg, sc dosed once daily for 4 weeks by H and E staining based analysis; format: functional, organism-based
# in vitro [23] = conditions: human, liver microsomes; remark: listed apart in the source
# Description: Stability in human liver microsomes assessed as parent compound remaining at 1 uM incubated for 60 mins in presence of NADPH by LC-MS/MS analysis
# Cannabinoid receptor 2 [24] = molecular target: T2, Cannabinoid receptor 2; experiment: Agonist activity at human CB2 receptor expressing CHO cells co-expressing Galpha16 by calcium mobilization assay relative to CP55940; format: functional, cell-based; conditions: filed as agonist
# [25] = Toxicity in BALB/c mouse model of BLM-induced systemic sclerosis assessed as effect on body weight at 1 to 5 mg/kg, sc dosed once daily for 4 weeks; format: organism-based; conditions: in vivo, 672 h, dose 1-5 mg/kg
# Homo sapiens = species on record: Homo sapiens; experiment: Selectivity index, ratio of EC50 for agonist activity at human CB1 receptor expressing CHO cells co-expressing Galpha16 by calcium mobilization assay to EC50 for agonist activity at human CB2 receptor expressing CHO cells co-expressing Galpha16 by calcium mobilization assay
# [26] = molecular target: Prostaglandin E2 receptor EP4 subtype (Homo sapiens) (UniProt P35408); experiment: Antagonist activity at EP4 (unknown origin) at 10 uM
# [27] = molecular target: Prostaglandin E2 receptor EP4 subtype (Homo sapiens) (UniProt P35408); experiment: Agonist activity at EP2 (unknown origin) at 10 uM
# Cannabinoid receptor 1 [28] = molecular target: T3, Cannabinoid receptor 1; experiment: Agonist activity at human CB1 receptor expressing CHO cells co-expressing Galpha16 by calcium mobilization assay; format: functional, cell-based
# [29] = Half life in BALB/c mouse at 1 mg/kg, iv measured during 0.083 to 24 hrs post dose by LC-MS/MS analysis; format: ADME, organism-based; conditions: in vivo, time 0.083-24 hrs
compound,measurement,setting,value
CC(C)(CO)NC(=O)c1cc(C(C)(C)C)n(-c2ccc(C(F)(F)F)cn2)n1,half-life at 1 µM,in vitro [1],113 min
same,Activity,[2],inactive
same,Activity,CHO,inactive
same,AUC(0-inf),[3],1670 ng·h/mL
same,microsomal CLint at 1 µM,in vitro [4],12.3 µL/min/mg
same,Vd,[5],9.2 L/kg
same,Activity,Mus musculus [6],Active
same,Activity,Mus musculus [7],Active
same,Activity,Cannabinoid receptor 2 [8],inactive
same,pEC50,Cannabinoid receptor 2 [9],6.25
same,CL/F,[10],51.7 mL/min/kg
same,Activity,Mus musculus [11],Active
same,Cmax,[12],603 ng/mL
same,clearance,[13],40 mL/min/kg
same,Activity,Cannabinoid receptor 1 [14],Active
same,Activity,[15],inactive
same,AUC(0-inf),[16],422 ng·h/mL
same,Activity,Cannabinoid receptor 2 [17],inactive
same,Activity,[18],inactive
same,Cmax,[19],959 ng/mL
same,Emax,Cannabinoid receptor 1 [20],30%
same,Activity,[21],inactive
same,Activity,Mus musculus [22],Active
same,"remaining at 1 h, 1 µM",in vitro [23],64%
same,Emax,Cannabinoid receptor 2 [24],100%
same,Activity,[25],Non-Toxic
same,Ratio EC50,Homo sapiens,> 100
same,Activity,[26],inactive
same,Activity,[27],inactive
same,pEC50,Cannabinoid receptor 1 [28],5.74
same,half-life,[29],79.2 min
